Source: US8410309B2, “Phenoxy carboxylic acid compounds and compositions for delivering active agents” (Emisphere Technologies, Inc., priority 1999, dated 2013)
Where “and” joins values, the source holds several entries; their conditions need not be identical. Identical values can stand only once.

Tests used:
[1] = Salmon calcitonin (sCT) oral delivery, serum sCT by EIA; conditions: rats, delivery agent compound dose 150 mg/kg, sCT dose 30 μg/kg, dose volume 1 (ml)
Protocol: Oral dosing (PO) compositions of a delivery agent compound and salmon calcitonin (sCT) in deionized water were prepared as described in Table 2 below. […] Either the sodium salt of the compound was used or the free acid was converted to the sodium salt by stirring the resultant solution and adding one equivalent of sodium hydroxide (1.0 N) and diluting with water. The solution was vortexed, then heated (about 37° C.) and sonicated. The pH was adjusted to about 7 (about 6.5 to 8.5) with NaOH or HCl. 90 μg sCT from a sCT stock solution (2 mg/ml made by adding 10001 pH 4 phosphate buffer to sCT and allowing it to go into solution by sitting for about 10-20 minutes and periodically gently inverting) was added to the solution.
The typical dosing and sampling protocols were as follows. Male Sprague-Dawley rats weighing between 200-250 g were fasted for 24 hours and administered ketamine (44 mg/kg) and chlorpromazine (1.5 mg/kg) 15 minutes prior to dosing and again as needed to maintain anesthesia. A dosing group of five animals was administered one of the dosing solutions. For oral dosing, an 11 cm Rusch 8 French catheter was adapted to a 1 ml syringe with a pipette tip. The syringe was filled with dosing solution by drawing the solution through the catheter, which was then wiped dry. The catheter was placed down the esophagus leaving 1 cm of tubing past the incisors. Solution was administered by pressing the syringe plunger.
Blood samples were collected serially from the tail artery, typically at time=0, 10, 20, 30, 60 and 90 minutes. […] Numbers were adjusted according to baseline values obtained at time=0. The results from the animals in each dosing group were averaged for each time point.

[2] = Low molecular weight heparin (LMWH) oral/intracolonic delivery, plasma LMWH by anti-Factor Xa assay; type: in vivo, Sprague-Dawley rats; conditions: IC, rats, LMWH 750 IU/kg, 1 ml/kg
Protocol: Oral dosing (PO) and/or intracolonic (IC) compositions containing a delivery agent compound and low molecular weight heparin (LMWH) were prepared in 25% aqueous propylene glycol. […] Typically, the delivery agent compound and LMWH (Parnaparin, 91 IU/mg average molecular weight about 5,000, available from Opocrin, Modena, Italy) (typically 90-105 IU/mg, average molecular weight about 5,000) were mixed by vortex as dry powders. This dry mixture was dissolved in 25% v/v aqueous propylene glycol, vortexed, and placed in a sonicator (37° C.) to produce a clear solution. The pH was adjusted to about 7 (6.5-8.5) with 2N aqueous NaOH. The dosing solution was sonicated to produce a clear solution. The final volume was adjusted to 3.0 ml.
(§1) The typical dosing and sampling protocols were as follows. […] The dosing solution was expressed slowly into the colon by pressing the syringe plunger.
Citrated blood samples were collected by cardiac puncture following the administration of ketamine (88 mg/kg), typically at 0.5, 1.0, 2.0, 3.0 and 4.0 hours after dosing. LMWH absorption was verified by an increase in plasma LMWH measured by the anti-Factor Xa assay CHROMOSTRATE™ Heparin anti-Xa assay (available from Organon Teknika Corporation, Durham, N.C.). […] The peak of these mean plasma LMWH concentrations is reported below in Table 5.

[3] = Interferon oral delivery, serum IFN by immunoassay; type: in vivo, Sprague-Dawley rats; conditions: rats, delivery agent compound 200 mg/kg, IFN 1 mg/kg, 1 ml/kg
Protocol: Dosing solutions of delivery agent compound and human interferon (IFN) were prepared in deionized water. […] This mixture was vortexed and placed in a sonicator (about 37° C.). The pH was adjusted to about 7.0 to 8.5 with aqueous NaOH. The mixture was vortexed to produce a uniform suspension or solution, also using sonication and heat if necessary.
(§2) The typical dosing and sampling protocols were as follows.
Serum IFN concentrations were quantified using Cytoscreen Immunoassay Kit for human IFN-alpha (catalog # KHC4012 from Biosource International, Camarillo, Calif.). Previous studies indicated baseline values of about zero.

[4] = Heparin oral/intracolonic delivery, clotting time by activated partial thromboplastin time (APTT); type: in vivo, Sprague-Dawley rats; conditions: rats, baseline about 20 seconds
Protocol: Oral gavage (PO) and/or intracolonic (IC) dosing solutions containing a delivery agent compound and heparin sodium USP were prepared in 25% aqueous propylene glycol. […] This dry mixture was dissolved in 25% v/v aqueous propylene glycol, vortexed, and placed in a sonicator (about 37° C.). The pH was adjusted to about 7 (6.5 to 8.5) with aqueous NaOH (2N). The dosing solution was sonicated to produce a clear solution. The final volume was adjusted to about 3.0 ml.
as §1
Citrated blood samples were collected by cardiac puncture following the administration of ketamine (88 mg/kg), typically at 0.25, 0.5, 1.0 and 1.5 hours after dosing. Heparin absorption was verified by an increase in clotting time measured by the activated partial thromboplastin time (APTT) according to the method of Henry, J. B., Clinical Diagnosis and Management by Laboratory Methods, Philadelphia, Pa., W.B. Saunders (1979). Previous studies indicated baseline values of about 20 seconds.

[5] = Insulin pulmonary delivery, serum insulin by ELISA, ratio to insulin-alone control; type: in vivo, Sprague-Dawley rats; conditions: rats; for Cmax (serum insulin): Table 9 pulmonary delivery, volume 1 ml/kg, delivery agent compound 3 mg/kg, insulin 100 mg/kg (so in the source)
Protocol: Dosing compositions of delivery agent compound and human insulin in water were prepared. Typically, to 1.5 mg of delivery agent compound was added deionized water to bring the volume to 1.0 ml, and the solution was vortexed. […] The pH was adjusted to between about 7.0 to 8.5 with NaOH or HCl. […] The final delivery agent compound dose, insulin dose and volume dose amounts are listed below in Table 9.
The typical dosing and sampling protocols were as follows. […] A control group of five animals was dosed insulin alone. A tracheal instillator for rodents, equipped with light (available from Penn Century, Inc., Pittsburgh, Pa.) was filled with dosing solution and inserted down the throat until the needle went into the trachea (confirmed visually). The dosing solution was administered by pressing the plunger.
Blood samples from each animal were collected serially from the tail artery, typically at 5, 15, 30, 60 and 120 minutes after dosing. […] The ratio of the area under the curve (AUC) for the test group versus that of the control group is reported below. The ratio of the maximum serum insulin concentration (Cmax) for the test group versus that of the control group is also reported below.

[6] = Insulin oral delivery, serum human insulin by ELISA; conditions: rats
Protocol: Oral dosing (PO) compositions of delivery agent compound and human zinc insulin (minimum 26 IU/mg available from Calbiochem—Novabiochem Corp, La Jolla, Calif.) were prepared in deionized water. […] The pH was adjusted to about 7 to 8.5 with NaOH or HCl. […] The final delivery agent compound dose, insulin dose and dose volume amounts are listed below in Table 8.
as §2
Serum insulin levels were determined with an Insulin ELISA Test Kit (Kit # DSL-10-1600 from Diagnostic Systems Laboratories, Inc., Webster, Tex.), modifying the standard protocol in order to optimize the sensitivity and linear range of the standard curve for the volumes and concentrations of the samples used in the present protocol. […] The five values for each time point were averaged and the results plotted as serum insulin concentration versus time.

[7] = Recombinant human growth hormone (rhGH) oral delivery, serum rhGH by immunoassay; conditions: oral gavage, rats; delivery agent compound 200 mg/kg, rhGH 3 mg/kg, volume dose 1 ml
Protocol: Oral gavage (PO) dosing solutions of delivery agent compound and rhGH in phosphate buffer were prepared by mixing. A solution of the delivery agent compound was made either with the sodium salt of the delivery agent compound or by converting the free acid to its sodium salt.
The typical dosing and sampling protocols were as follows. Male Sprague-Dawley rats weighing 200-250 g were fasted for 24 hours and administered ketamine (44 mg/kg) and chlorpromazine (1.5 mg/kg) 15 minutes prior to dosing and again as needed to maintain anesthesia. A dosing group of five animals was administered one of the dosing solutions. An 11 cm Rusch 8 French catheter was adapted to a 1 ml syringe with a pipette tip. The syringe was filled with dosing solution by drawing the solution through the catheter, which was then wiped dry. The catheter was placed down the esophagus leaving 1 cm of tubing past the incisors. The dosing solution was administered by pressing the syringe plunger.
Blood samples were collected serially from the tail artery typically at time=15, 30, 45, 60 and 90 minutes. The five samples from each time period were pooled (except for those samples for which standard deviation (SD) and standard error (SE) are reported). Serum rHGH concentrations were quantified by an rHGH immunoassay test kit (Kit # K1F4015 from Genzyme Corporation Inc., Cambridge, Mass.).

[8] = Daptomycin oral delivery, plasma daptomycin by HPLC; type: in vivo, Sprague-Dawley rats; conditions: rats, delivery agent compound dose 200 mg/kg, daptomycin dose 50 mg/kg, volume dose 1 mL/kg
Protocol: Dosing solutions containing a delivery agent compound and daptomycin (Cubist Pharmaceuticals, Cambridge, Mass.) were prepared in 0.9% normal saline. […] This mixture was vortexed and placed in a sonicator (about 37° C.). The pH was adjusted to about 7.0-7.5 with aqueous HCl or NaOH. […] The mixture was vortexed to produce a uniform solution, also using sonication if necessary. The delivery agent compound solution was mixed with daptomycin from a stock solution (200 mg daptomycin/mL in 0.9% normal saline and the pH adjusted, if necessary, to between 6.0-7.0 with NaOH or HCl). The stock solution was stored frozen (−20° C.) wrapped in foil, then thawed and warmed gradually to about 25° C. before using. The delivery agent-daptomycin mixture was vortexed at low speed to produce a uniform solution. The pH was adjusted to about 7.0-7.5 with aqueous NaOH. The solution was then diluted with 0.9% normal saline to the desired volume (usually 2.0 ml) and concentration and stored wrapped in foil before use.
as §2
Heparinized rat blood samples were collected via the ventral tail artery, typically at 0.25, 0.5, 0.75, 1.0, 2.0, and 4.0 hours after dosing, and stored on ice. Blood samples were then spun (centrifuged) at 11,500 rpm for 4 minutes at 4° C. to obtain the plasma (supernatant), which was stored at −70° C. The plasma daptomycin concentrations were measured by isocratic reversed phase HPLC, keeping samples at 4° C. during analysis. Blank plasma studies show baseline values of zero.
Daptomycin blood concentrations results from the individual animals in each dosage group were averaged for each time point.

[9] = delivery agent compound 25 mg/kg
[10] = IC (intracolonic), delivery agent compound 50 mg/kg, heparin 25 mg/kg, volume dose 1 ml
[11] = delivery agent compound 100 mg/kg, insulin 3 mg/kg, 1 ml/kg
[12] = delivery agent compound 200 mg/kg, insulin 0.5 mg/kg, 1 ml/kg
[13] = delivery agent compound 50 mg/kg

Row | SMILES | Mean Peak Serum [IFN] ± SD [3] [ng/mL] | Mean Peak APTT ± SD [4, 10] | Cmax (serum insulin) [5] [μU/ml] | Mean Peak Serum [INS] ± SD [6, 11] [μU/ml] | Mean Peak Serum [rhGH] [7] [ng/mL] | other results
1 | CC(=O)c1ccccc1OCc1ccc(C(=O)O)cc1 [Compound 1] | 17.357 ± 38 | 130.84 ± 118.18 s and 231.34 s | 74.237 | 74.237 ± 1144.49 | – | Mean Peak Serum sCT (pg/ml ± SD) (SE) ([1]; 150 mg/kg): 317 ± 405 pg/mL and 398 ± 237 pg/mL and 410 ± 471 pg/mL; Mean Peak Plasma LMWH Concentration ± SD [2, 9]: 1.022 ± 0.432 IU/ml; Mean Peak Plasma LMWH Concentration ± SD ([2]; delivery agent compound 50 mg/kg, 50 mg/kg): 1.734 ± 0.192 IU/ml and 1.038 ± 0.338 IU/ml
2 | O=C(O)CCCCCCOc1ccccc1O [Compound 6, (2-hydroxyphenyl)-7-oxyheptanoic acid] | 0.5696 ± 0.8 | 157.4 ± 33.7 s and 99.8 ± 50.6 s | – | – | – | Mean Peak Plasma LMWH Concentration ± SD [2, 9]: 0.47 ± 0.17 IU/ml; Mean Peak APTT ± SD ([4]; PO (oral gavage), delivery agent compound 300 mg/kg, heparin 100 mg/kg, volume dose 3 ml): 193 ± 61.2 s; Mean Peak Serum [INS] ± SD [6, 12]: 129.5 ± 131.5 μU/ml
3 | CC(=O)c1ccccc1OCCCCC(=O)O [Compound 10] | – | 81.8 ± 7 s and 63.5 s | 63.5884 | 63.5884 ± 129.23 | 34.3 | Mean Peak Plasma LMWH Concentration ± SD [2, 13]: 0.088 ± 0.121 IU/ml
4 | O=C(O)CCCOc1ccccc1 [Compound 14] | – | – | – | – | 19.8 | Mean plasma Cmax [daptomycin] ± SD [8]: 14200 ± 24840 ng/mL
5 | O=C(O)C=Cc1ccccc1OCCCCCCCC(=O)O [Compound 25] | – | – | 47.2162 | 47.2162 ± 31.43 | 0 | Mean Peak Serum sCT (pg/ml ± SD) (SE) [1]: 53 ± 77 pg/mL
6 | O=C(O)CCCCCCCOc1ccccc1C(=O)O [Compound 32] | 0 | 26.5 ± 2.3 s | – | – | 0 | Mean Peak Serum sCT (pg/ml ± SD) (SE) ([1]; 150 mg/kg): 175 ± 148 pg/mL and 103 ± 75 pg/mL and 187 ± 135 pg/mL; Mean Peak Plasma LMWH Concentration ± SD [2, 13]: 0.07 ± 0.01 IU/ml; Mean Peak Serum [INS] ± SD [6, 12]: 3.12 ± 2.26 μU/ml; Mean Peak Serum [INS] ± SD ([6]; delivery agent compound 200 mg/kg, insulin 3 mg/kg, 1 ml/kg): 6.38 ± 4.42 μU/ml
7 | O=C(O)CCCCCCCCCOc1cccc(O)c1 [Compound 44] | – | – | – | – | – | Mean Peak Serum sCT (pg/ml ± SD) (SE) [1]: 188 ± 184 pg/mL; Mean Ratio of AUC for insulin + compound versus AUC for insulin alone ([5]; pulmonary, volume 0.4 ml/kg, delivery agent compound 0.03 mg/kg, insulin 0.3 mg/kg (so in the source)): 0.76; Mean Peak Serum [INS] ± SD ([6]; delivery agent compound 100 mg/kg, insulin 3 mg/kg, 0.5 ml/kg): 97.49 ± 134.1 μU/ml
